Test results as given in patent US20250120988A1, “SMALL MOLECULE COMPOUND FOR TREATING ISCHEMIC STROKE, ITS PREPARATION METHOD, AND APPLICATION” (SHANGHAI SIXTH PEOPLE'S HOSPITAL, priority 2023, published 2025).
Where two headings read alike, the source gives them in different places.

Legend:
[1] = Pharmacokinetics of single intraperitoneal injection in mice (LC-MS/MS, plasma and brain tissue); type: in vivo, male C57BL/6J mice; conditions: i.p. 30 mg/kg; for MRT last: read-out: MRT(0-t); for MRT inf: read-out: MRT(0-∞)
Method: LC-MS/MS method was used to measure the concentration of LK-2 in plasma and brain tissue. LK-2 was dissolved in 0.9% saline to a concentration of 1 mg/ml. Blood samples were collected at 5 min, 15 min, 30 min, 1.0 h, 2.0 h, and 4.0 h time points into EDTA-coated tubes, then centrifuged at 2,000 g for 15 min to generate plasma samples. Brain tissue samples were collected after perfusion with saline through the left ventricle, and the brain tissue were diluted and homogenized with 5 volumes (w:v) of 0.9% NaCl. LC-MS/MS method for quantification of LK-2 in plasma and brain tissue samples was developed using LC-MS/MS-T_API4000 instrument. The general sample processing procedure is as follows. • 1) 30 μl plasma samples were divided, standard samples were calibrated with quality control, and single blank and double blank samples were added into 1.5 ml tubes, respectively. 40 μl brain tissue homogenate were added to each well of a 96-well plate, respectively, and standard samples were calibrated with quality control, single blank and double blank samples were aliquoted. • 2) Each sample (excluding double blanks) was mixed with 150 μl (plasma samples) or 200 μl (brain tissue homogenate) of internal standard solution [a 6-in-1 internal standard solution (100 ng/ml each of labetalol, tolbutamide, verapamil, dexamethasone, glipizide, and celecoxib dissolved in methanol) and 40 mM dibutyl acetic acid] to terminate the reaction (double blank samples were terminated with 40 mM dibutyl acetic acid in methanol). The mixture was then thoroughly vortexed for at least 15 s and centrifuged at 12000 g (plasma samples) or 3220 g (brain homogenate) at 4° C. for 15 minutes. • 3) 65 μl of the supernatant was evenly transferred into a 96-well plate and centrifuge at 3220 g, 4° C. for 5 minutes. All procedures were performed on wet ice. All the supernatant was directly injected for LC-MS/MS analysis. The chromatographic column was ACQUITY UPLC BEHC18 with 2.1×100 mm, 1.7 μm. The column temperature was at 40° C. and the flow rate was 0.4 mL/min. The mobile phase A was 0.001% NH3·H2O, 0.18 mM dibutylamine acetate aqueous solution, and mobile phase B was 10 mM N,O-dimethylhydroxylamine and 3 mM NH4OAc solution, acetonitrile/aqueous solution (v:v, 50:50). Standard curves were prepared by spiking compounds into control plasma and brain to determine drug concentrations. Pharmacokinetic parameters and average concentrations at each time point were calculated using DAS 2.0 software through non-compartmental analysis (NCA), as shown in Table 1.

MCAO model = assay: MCAO cerebral ischemia model, rotarod motor function test; type: in vivo, mice; conditions: 30 mg/kg, seven days after brain injury
Method: Figure a illustrates the experimental process, where drug intervention (using a concentration of 30 mg/kg of LK-2) was conducted 30 minutes after modeling, and the first brain function test (rotarod test) was performed 24 hours after modeling. The second brain function test was conducted 7 days later, with 5 training tests followed by 1 formal test in each rotarod test. Figure b illustrates the time taken for mice to fall off the rotarod during the 5 training tests, where longer time indicates better motor function. […] Figure c illustrates the analysis results of motor ability in the formal test conducted 24 hours and 7 days after modeling for each group of mice. • 3.4 The animal model of cerebral ischemic stroke, known as the middle cerebral artery occlusion (MCAO) model, is a classic model used to simulate individual patients with ischemic stroke, and evaluate the size of cerebral infarction and motor function (evaluate through the rotarod test, including assessment of motor learning and coordination, the experimental design process is illustrated in FIG. 8a) in model animals after drug intervention. The specific steps are as follows: a transient focal ischemic model was formed by occluding the middle cerebral artery for 30 minutes in wild-type or ASIC1a gene knockout mice. […] In this test, mice were placed on the rotating rod and the time to fall was recorded. […]

[2] = male, C57BL/6J, mouse, ip, Brain tissue
[3] = male, C57BL/6J, mouse, ip, Plasma

CL ([1]; Brain tissue): 634.03 ± 53.28 mL/min/kg | V ([1]; Brain tissue): 124.755 ± 15.127 L/kg | CL ([1]; Plasma): 7.13 ± 0.317 mL/min/kg | V ([1]; Plasma): 0.356 ± 0.021 L/kg | Kp ([1]; male, C57BL/6J, mouse, brain/plasma, ip, read-out: Brain/plasma AUC ratio): 0.0127 ± 0.0006 | AUC(0-inf) [1, 2]: 793 ± 68 ng·h/mL | AUC(0-t) [1, 2]: 523 ± 27.9 ng·h/mL | Cmax [1, 2]: 236 ± 31.9 ng/mL | Tmax [1, 2]: 30 min | half-life [1, 2]: 138 ± 26.5 min | MRT last [1, 2]: 106 ± 4.68 min | MRT inf [1, 2]: 218 ± 36.7 min | AUC(0-inf) [1, 3]: 70300 ± 3130 ng·h/mL | AUC(0-t) [1, 3]: 69800 ± 3120 ng·h/mL | Cmax [1, 3]: 92700 ± 8310 ng/mL | Tmax [1, 3]: 30 min | half-life [1, 3]: 34.6 ± 0.9 min | MRT last [1, 3]: 41.6 ± 1.14 min | MRT inf [1, 3]: 43.3 ± 1.08 min
SMILES: O=C(O)C1CN(C(c2ccccc2)P(=O)(O)O)CCN1 (stereo not drawn) [LK-2]
motor learning ability (MCAO model; rotarod training tests): significant improvement | overall improvement in motor function (MCAO model; rotarod): 51.6%
